ChEMBL document CHEMBL1201862, “PubChem BioAssay data set” (2004)
Calls of active or inactive are those of the source.

Experiments:
SN12K1 = assay: cells; type: functional; conditions: Homo sapiens
P388 = assay: cells; type: functional; conditions: Mus musculus
P388/ADR = assay: cells; type: functional; conditions: Mus musculus
[1] = target: T1, Endoribonuclease toxin MazF (Escherichia coli K-12, UniProt P0AE70); assay: activation of MazEF endoribonuclease cleavage – biochemical, fluorescence, single-stranded RNA substrate, uHTS hits, dose response (AID 588481); type: functional
T1 sequence (P0AE70 whole entry): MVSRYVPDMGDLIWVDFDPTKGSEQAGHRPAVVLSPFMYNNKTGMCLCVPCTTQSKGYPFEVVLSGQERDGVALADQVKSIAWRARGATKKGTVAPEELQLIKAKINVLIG

[2] = target: T1, Endoribonuclease toxin MazF; assay: substrate-only fluorescence increase artefacts – biochemical, single-stranded RNase substrate, counter-screen for MazEF activator project, dose response (AID 588502); type: functional
Cytochrome P450 2C19 = Cytochrome P450 2C19 (Homo sapiens, UniProt P33261); assay: Cytochrome panel assay with activity outcomes. Panel member name: p450-cyp2c19 Compounds with AC50 equal or less than 10 uM are considered active; type: functional; conditions: read-out: AC50
Cytochrome P450 3A4 = Cytochrome P450 3A4 (Homo sapiens, UniProt P08684);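 also: CYP3A4 tested as one member of a cytochrome P450 panel screen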
Protein skinhead-1 = target: T2, Protein skinhead-1 (Caenorhabditis elegans, UniProt P34707); type: functional
T2 sequence (P34707 whole entry): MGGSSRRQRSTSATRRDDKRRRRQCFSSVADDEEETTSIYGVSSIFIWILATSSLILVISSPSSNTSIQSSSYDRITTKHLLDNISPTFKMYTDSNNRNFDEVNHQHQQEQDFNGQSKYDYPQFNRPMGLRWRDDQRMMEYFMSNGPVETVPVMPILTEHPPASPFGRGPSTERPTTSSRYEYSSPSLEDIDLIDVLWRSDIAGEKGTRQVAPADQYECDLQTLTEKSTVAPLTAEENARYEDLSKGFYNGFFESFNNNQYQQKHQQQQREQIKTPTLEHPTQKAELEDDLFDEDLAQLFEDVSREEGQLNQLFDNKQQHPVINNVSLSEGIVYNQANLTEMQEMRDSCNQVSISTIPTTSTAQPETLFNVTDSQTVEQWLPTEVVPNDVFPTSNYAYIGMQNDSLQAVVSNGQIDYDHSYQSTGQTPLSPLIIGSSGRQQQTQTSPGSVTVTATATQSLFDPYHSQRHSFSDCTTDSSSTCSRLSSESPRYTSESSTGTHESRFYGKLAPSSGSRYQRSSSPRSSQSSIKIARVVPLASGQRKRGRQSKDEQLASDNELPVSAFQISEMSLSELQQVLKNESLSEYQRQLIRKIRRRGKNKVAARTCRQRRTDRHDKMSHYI

[3] = HIV-1 AD8 envelope cell-cell fusion blockers – cherry-pick, dose response (AID 652062); type: functional, cell-based;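 also: luciferase signal from cell-cell fusion driven by HIV-1 clade B AD8 Env; potency is for inhibitors of fusion seen as a drop in luminescence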
[4] = off-target signal loss in HeLa-CEM21 co-culture – HeLa F-luc CTL cells, cherry-picked, counter-screen for HIV-1 Env fusion inhibitor project, dose response (AID 652040); type: functional, cell-based;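 also: potency for signal decrease marking cytotoxic or nonspecific inhibition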
[5] = target: T3, Probable nicotinate-nucleotide adenylyltransferase (Staphylococcus aureus (strain N315), UniProt P65502); type: functional, Staphylococcus aureus subsp. aureus N315;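 as to IC50 Mean: confirmatory dose-response retesting of NadD inhibitor hits first found in an ultra-high-throughput screen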
[6] = target: T3, Probable nicotinate-nucleotide adenylyltransferase; type: functional, Staphylococcus aureus subsp. aureus N315; conditions: read-out: IC50_Mean
[7] = target: T4, Type-1 angiotensin II receptor (Homo sapiens, UniProt P30556); assay: antagonism of angiotensin II type 1 receptor – cell-based, uHTS hits, selectivity assay for APJ receptor antagonist project, dose response (AID 463214); type: functional;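 also: antagonist potency against angiotensin II stimulated AT1 response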
T4 sequence (P30556 whole entry): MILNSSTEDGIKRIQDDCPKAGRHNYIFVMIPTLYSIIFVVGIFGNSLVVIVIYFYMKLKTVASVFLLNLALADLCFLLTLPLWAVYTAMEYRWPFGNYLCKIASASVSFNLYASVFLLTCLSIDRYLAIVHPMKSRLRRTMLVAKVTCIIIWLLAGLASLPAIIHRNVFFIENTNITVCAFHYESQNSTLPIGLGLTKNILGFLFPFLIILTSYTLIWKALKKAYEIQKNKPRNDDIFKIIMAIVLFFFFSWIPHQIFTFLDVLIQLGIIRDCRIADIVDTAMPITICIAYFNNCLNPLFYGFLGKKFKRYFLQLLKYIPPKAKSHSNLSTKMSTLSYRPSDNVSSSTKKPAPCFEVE

Beta-galactosidase = Beta-galactosidase (Escherichia coli, UniProt Q8VNN2); assay: PubChem AID 485352; type: functional
[8] = target: T5, Small ubiquitin-related modifier 1 (Homo sapiens, UniProt P63165); assay: SUMO1 protein interaction blockers, potency – biochemical, fluorescence polarization, uHTS hits, dose response (AID 624382); type: functional; conditions: read-out: IC50_Mean
[9] = target: T5, Small ubiquitin-related modifier 1; assay: SUMO1 protein-protein binding blockers, potency – biochemical, FRET, dose response (AID 624383); type: functional; conditions: read-out: IC50_Mean
[10] = target: Heat shock protein HSP 90-alpha (Homo sapiens, UniProt P07900); type: functional, organism-based
[11] = Fluorescence-based cell-based high throughput dose response assay for inhibitors of the interaction of nucleotide-binding oligomerization domain containing 2 (NOD2) and the receptor-interacting serine-threonine kinase 2 (RIPK2).; type: functional; conditions: Homo sapiens
Vero = assay: cells; type: functional; conditions: Chlorocebus sabaeus
Cytochrome P450 2C9 = Cytochrome P450 2C9 (Homo sapiens, UniProt P11712)
Cytochrome P450 1A2 = target: T6, Cytochrome P450 1A2 (Homo sapiens, UniProt P05177);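 also: PubChem cytochrome P450 panel assay, CYP1A2 panel member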
T6 sequence (P05177 whole entry): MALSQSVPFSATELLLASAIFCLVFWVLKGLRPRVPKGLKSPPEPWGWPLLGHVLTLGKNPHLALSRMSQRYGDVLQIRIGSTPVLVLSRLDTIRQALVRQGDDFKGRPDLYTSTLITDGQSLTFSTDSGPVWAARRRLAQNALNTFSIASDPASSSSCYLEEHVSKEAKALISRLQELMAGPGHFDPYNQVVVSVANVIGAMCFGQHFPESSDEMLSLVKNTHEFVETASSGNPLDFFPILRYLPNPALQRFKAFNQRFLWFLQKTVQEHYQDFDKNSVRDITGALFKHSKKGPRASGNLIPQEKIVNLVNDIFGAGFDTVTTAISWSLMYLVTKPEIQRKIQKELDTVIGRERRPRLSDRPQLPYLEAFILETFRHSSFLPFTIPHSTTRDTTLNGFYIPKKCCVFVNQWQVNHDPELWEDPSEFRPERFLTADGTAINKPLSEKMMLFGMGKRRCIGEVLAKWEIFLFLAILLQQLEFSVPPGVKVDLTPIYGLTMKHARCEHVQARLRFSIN

Cytochrome P450 2D6 = Cytochrome P450 2D6 (Homo sapiens, UniProt P10635);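 also: CYP2D6 member of a cytochrome P450 panel assay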
Melanocortin receptor 4 = Melanocortin receptor 4 (Homo sapiens, UniProt P32245); assay: inhibitors of MC4R cAMP signaling – cell-based, TR-FRET, biased antagonists, dose response (AID 602298); type: functional;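 also: antagonist potency against agonist-stimulated cAMP production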
Nonstructural protein 1 = Nonstructural protein 1 (Influenza A virus, UniProt Q194T2); type: functional, Influenza A virus (A/California/07/2009(H1N1))
[12] = viability loss in HeLa cells – cytotoxicity control for MgcRacGAP inhibitor project, dose response (AID 624300); type: functional
[13] = target: T7, Rac GTPase-activating protein 1 (Homo sapiens, UniProt Q9H0H5); assay: blockers of MgcRacGAP-driven Rac1 GTP hydrolysis – biochemical, ADP Hunter fluorescence, primary and confirmatory, confirmation (AID 624330); type: functional
T7 sequence (Q9H0H5 whole entry): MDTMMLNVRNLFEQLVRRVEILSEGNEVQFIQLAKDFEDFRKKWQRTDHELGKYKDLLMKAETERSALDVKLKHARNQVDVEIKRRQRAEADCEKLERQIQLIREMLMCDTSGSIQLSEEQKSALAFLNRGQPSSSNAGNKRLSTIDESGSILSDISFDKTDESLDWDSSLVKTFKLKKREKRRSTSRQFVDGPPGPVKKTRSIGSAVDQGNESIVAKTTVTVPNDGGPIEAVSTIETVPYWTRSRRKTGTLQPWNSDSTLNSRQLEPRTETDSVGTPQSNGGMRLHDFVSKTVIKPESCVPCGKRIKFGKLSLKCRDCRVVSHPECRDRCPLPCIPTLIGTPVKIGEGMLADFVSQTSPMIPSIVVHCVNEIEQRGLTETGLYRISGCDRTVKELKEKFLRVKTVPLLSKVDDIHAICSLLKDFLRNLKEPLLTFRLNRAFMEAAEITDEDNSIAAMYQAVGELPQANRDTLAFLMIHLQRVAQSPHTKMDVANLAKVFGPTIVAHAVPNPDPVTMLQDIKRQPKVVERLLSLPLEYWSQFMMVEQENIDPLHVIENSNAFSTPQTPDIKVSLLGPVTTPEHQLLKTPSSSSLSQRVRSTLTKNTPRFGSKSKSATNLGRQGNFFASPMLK

[14] = cAMP pathway inhibition in counterscreen cell line – TR-FRET cAMP detection, counter-screen for MC4R biased antagonist project, dose response (AID 602305); type: functional, cell-based;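 also: U2OS cells stimulated with forskolin near its EC80 as the cAMP inducer; potency is for inhibition of forskolin-stimulated cAMP signaling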

Cytochrome P450 3A4, sequence (P08684 whole entry): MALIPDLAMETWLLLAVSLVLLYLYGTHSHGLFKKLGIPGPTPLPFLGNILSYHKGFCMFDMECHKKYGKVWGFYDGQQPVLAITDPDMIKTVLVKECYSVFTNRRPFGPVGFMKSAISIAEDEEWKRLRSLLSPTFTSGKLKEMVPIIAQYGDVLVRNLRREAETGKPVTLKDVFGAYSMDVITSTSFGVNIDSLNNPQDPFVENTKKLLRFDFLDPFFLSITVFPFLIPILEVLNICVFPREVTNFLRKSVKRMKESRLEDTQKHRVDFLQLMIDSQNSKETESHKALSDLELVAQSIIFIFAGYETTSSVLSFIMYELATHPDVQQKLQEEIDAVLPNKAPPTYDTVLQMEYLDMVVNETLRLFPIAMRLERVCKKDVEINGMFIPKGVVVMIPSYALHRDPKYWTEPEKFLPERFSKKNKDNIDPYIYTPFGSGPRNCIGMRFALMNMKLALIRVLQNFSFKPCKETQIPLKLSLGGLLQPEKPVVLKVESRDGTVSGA
T5 sequence (P63165 whole entry): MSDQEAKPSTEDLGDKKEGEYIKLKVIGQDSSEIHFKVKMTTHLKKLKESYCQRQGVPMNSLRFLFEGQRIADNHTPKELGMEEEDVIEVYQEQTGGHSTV
T3 sequence (P65502 whole entry): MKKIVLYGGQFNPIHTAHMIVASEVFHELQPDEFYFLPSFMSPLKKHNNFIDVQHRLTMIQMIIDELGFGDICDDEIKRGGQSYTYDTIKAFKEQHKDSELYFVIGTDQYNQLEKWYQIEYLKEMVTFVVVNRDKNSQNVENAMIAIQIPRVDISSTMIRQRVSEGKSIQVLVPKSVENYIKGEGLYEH
Beta-galactosidase, sequence (Q8VNN2 whole entry): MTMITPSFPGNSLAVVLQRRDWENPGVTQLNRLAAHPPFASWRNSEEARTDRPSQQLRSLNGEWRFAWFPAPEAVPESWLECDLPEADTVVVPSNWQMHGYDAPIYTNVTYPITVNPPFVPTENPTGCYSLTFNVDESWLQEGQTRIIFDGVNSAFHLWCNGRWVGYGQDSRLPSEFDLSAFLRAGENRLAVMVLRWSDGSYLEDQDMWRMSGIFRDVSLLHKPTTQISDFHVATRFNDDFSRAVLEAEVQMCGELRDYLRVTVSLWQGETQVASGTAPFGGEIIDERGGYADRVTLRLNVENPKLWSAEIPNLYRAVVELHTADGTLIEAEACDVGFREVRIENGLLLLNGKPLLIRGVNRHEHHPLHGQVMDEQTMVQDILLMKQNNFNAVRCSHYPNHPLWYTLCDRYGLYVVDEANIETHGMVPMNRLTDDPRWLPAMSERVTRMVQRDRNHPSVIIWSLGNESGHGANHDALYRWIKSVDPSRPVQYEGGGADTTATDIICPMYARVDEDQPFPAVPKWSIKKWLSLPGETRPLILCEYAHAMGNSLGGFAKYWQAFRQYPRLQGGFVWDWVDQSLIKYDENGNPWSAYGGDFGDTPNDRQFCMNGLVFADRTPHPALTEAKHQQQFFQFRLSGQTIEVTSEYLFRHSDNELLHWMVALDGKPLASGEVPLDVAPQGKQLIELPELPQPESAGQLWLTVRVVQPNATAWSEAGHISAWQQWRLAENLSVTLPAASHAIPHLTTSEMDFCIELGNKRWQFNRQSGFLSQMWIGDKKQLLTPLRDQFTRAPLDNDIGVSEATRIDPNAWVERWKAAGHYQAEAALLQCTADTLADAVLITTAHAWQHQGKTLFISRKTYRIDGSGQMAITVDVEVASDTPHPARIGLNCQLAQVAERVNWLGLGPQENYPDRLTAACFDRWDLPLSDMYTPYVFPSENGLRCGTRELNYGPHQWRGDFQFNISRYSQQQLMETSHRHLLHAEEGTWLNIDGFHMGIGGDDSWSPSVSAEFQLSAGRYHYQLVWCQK
Cytochrome P450 2C9, sequence (P11712 whole entry): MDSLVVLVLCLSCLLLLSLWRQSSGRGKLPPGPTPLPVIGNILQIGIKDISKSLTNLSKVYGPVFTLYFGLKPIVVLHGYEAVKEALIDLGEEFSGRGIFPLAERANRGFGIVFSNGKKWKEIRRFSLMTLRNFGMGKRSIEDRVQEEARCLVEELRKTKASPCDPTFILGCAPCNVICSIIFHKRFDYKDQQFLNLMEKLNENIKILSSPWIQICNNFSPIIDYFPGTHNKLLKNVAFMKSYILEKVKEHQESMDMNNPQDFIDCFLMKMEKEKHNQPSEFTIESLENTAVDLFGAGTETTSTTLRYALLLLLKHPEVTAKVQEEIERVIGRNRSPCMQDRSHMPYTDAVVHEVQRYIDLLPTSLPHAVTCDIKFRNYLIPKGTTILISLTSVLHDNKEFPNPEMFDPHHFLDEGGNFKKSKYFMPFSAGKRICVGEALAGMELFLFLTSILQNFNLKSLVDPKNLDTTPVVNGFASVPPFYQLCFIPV
Nonstructural protein 1, sequence (Q194T2 whole entry): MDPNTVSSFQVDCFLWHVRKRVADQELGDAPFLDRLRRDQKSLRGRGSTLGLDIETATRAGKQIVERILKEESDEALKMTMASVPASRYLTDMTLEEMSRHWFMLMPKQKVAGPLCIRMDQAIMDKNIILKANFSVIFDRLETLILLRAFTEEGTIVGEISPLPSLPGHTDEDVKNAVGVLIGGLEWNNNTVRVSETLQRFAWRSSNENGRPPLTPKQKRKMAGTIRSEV
Cytochrome P450 2C19, sequence (P33261 whole entry): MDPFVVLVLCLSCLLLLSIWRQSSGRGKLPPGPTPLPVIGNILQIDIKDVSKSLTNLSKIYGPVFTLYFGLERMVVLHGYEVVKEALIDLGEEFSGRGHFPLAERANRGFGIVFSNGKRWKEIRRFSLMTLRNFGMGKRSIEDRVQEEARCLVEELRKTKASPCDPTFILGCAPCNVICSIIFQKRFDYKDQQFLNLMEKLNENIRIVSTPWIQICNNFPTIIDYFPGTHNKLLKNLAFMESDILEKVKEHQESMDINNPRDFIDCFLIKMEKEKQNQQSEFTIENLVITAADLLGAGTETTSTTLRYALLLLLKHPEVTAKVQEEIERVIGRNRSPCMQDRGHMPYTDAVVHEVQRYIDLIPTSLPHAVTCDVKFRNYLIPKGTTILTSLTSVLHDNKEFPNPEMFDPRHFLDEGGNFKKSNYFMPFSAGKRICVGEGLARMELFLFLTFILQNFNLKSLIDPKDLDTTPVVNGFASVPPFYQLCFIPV
Melanocortin receptor 4, sequence (P32245 whole entry): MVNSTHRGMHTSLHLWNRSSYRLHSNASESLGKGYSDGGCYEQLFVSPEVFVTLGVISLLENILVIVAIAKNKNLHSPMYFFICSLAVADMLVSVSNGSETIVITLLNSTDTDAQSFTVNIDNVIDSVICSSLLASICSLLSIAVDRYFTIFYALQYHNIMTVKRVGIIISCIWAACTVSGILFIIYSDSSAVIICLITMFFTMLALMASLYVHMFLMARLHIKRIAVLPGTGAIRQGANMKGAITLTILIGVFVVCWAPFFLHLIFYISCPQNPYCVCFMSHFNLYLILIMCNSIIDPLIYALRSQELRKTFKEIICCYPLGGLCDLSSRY
Cytochrome P450 2D6, sequence (P10635 whole entry): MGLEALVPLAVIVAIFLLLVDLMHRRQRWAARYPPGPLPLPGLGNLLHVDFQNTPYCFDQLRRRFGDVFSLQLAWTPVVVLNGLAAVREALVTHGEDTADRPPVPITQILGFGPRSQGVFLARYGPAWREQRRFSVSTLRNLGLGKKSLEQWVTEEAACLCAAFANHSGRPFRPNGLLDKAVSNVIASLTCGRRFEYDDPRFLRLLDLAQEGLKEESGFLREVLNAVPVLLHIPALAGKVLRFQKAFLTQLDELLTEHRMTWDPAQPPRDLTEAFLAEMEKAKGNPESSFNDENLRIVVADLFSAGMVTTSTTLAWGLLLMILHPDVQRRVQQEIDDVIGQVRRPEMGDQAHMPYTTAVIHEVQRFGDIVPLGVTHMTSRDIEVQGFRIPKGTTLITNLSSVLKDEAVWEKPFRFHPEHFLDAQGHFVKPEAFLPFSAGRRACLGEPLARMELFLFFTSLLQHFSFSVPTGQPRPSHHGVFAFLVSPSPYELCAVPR

## O=C1CCCCN1
SN12K1
  GI50: > 1120 µM (inactive)
P388
  GI50: 764 µM (inactive)
P388/ADR
  GI50: > 1120 µM (inactive)

## CCOc1ccc2c(c1)S/C(=C\c1cccs1)C(=O)N2
[1]
  EC50: > 99 µM (inactive)
[2]
  EC50: > 99 µM (inactive)

## COC(=O)N1CCC2(CC1)CN(C(c1ccccc1)c1ccccc1)C2
Cytochrome P450 2C19
  AC50: 39.8 µM (inconclusive)
Cytochrome P450 3A4
  AC50: inconclusive

## COc1ccc(S(=O)(=O)n2ccc(-c3ccc(OCCN(C)c4ccccn4)cc3)n2)cc1
Protein skinhead-1
  IC50: > 100 µM (inactive)
[3]
  AC50: 6.63 µM (active)
[4]
  AC50: 1.81 µM (active)

## C/C=C\C=C\C(=O)Nc1cccc(C2=NOC3(C2)C[C@@H](C(N)=O)N(C(=O)C(c2ccccc2)c2ccccc2)C3)c1 (stereo not given in full)
[5]
  IC50: 11.9 µM (active)
[6]
  IC50: 22.8 µM (active)

## Cc1nn(CCC(=O)NNC(S)=NCC(C)C)c(C)c1Br
[7]
  IC50: 15.9 µM (active)
Beta-galactosidase
  EC50: 32.1 µM (active)

## O=c1[nH]c(=O)c2nc3c4ccccc4c4ccccc4c3nc2[nH]1
[8]
  IC50: > 66.6 µM (inactive)
[9]
  IC50: 2.56 µM (active)

## COc1cc(/C=C/[N+](=O)[O-])ccc1OC(=O)c1cccnc1
[7]
  IC50: 5.87 µM (active)
[10]
  AC50: 4.36 µM (active)
[11]
  IC50: 1.82 µM (active)
Beta-galactosidase
  EC50: > 40 µM (inactive)
Vero
  CC50: 17.5 µM (active)

## Cc1ccc(-c2cc(C#N)c(=O)n(Cc3c(Cl)cccc3Cl)c2)cc1
[1]
  EC50: > 99 µM (inactive)
[2]
  EC50: 41.9 µM (inactive)

## COc1ccc(NS(=O)(=O)c2ccc(NC(=S)NC(=O)/C=C/c3ccccc3)cc2)nn1
[5]
  IC50: 6.28 µM (active)
[6]
  IC50: 40.6 µM (active)

## C/C(NCCN1CCOCC1)=C1/C(=O)NC(=O)N(Cc2ccccc2)C1=O
Cytochrome P450 3A4
  AC50: inconclusive
Cytochrome P450 2C9
  AC50: 25.1 µM (inconclusive)

## COC(=O)c1ccc(OCC(=O)Nc2nn(-c3ccccc3)nc2C(N)=O)cc1
[8]
  IC50: > 66.6 µM (inactive)
[9]
  IC50: 3.99 µM (active)

## N#Cc1cccc(NC(=O)N2CC3(CCN(C(=O)Oc4ccccc4)CC3)C2)c1
Cytochrome P450 1A2
  AC50: 15.8 µM (inconclusive)
Cytochrome P450 2D6
  AC50: 39.8 µM (inconclusive)
Cytochrome P450 3A4
  AC50: inconclusive
Cytochrome P450 2C9
  AC50: 15.8 µM (inconclusive)

## COc1cc(NS(=O)(=O)c2ccc(NC(=S)NC(=O)C3CCCC3)cc2)nc(OC)n1
[7]
  IC50: > 40 µM (not active)
Beta-galactosidase
  EC50: > 40 µM (inactive)

## CCOc1ccc2c(ccc(/C=C/c3cc(C)c4cccnc4c3O)[n+]2C)c1
Melanocortin receptor 4
  IC50: > 2.39 µM (active)
Nonstructural protein 1
  IC50: 0.676 µM (active)
[5]
  IC50: 8.71 µM (active)
[12]
  CC50: 95.9 µM (active)
[13]
  IC50: 34.5 µM (active)
[14]
  IC50: > 64.5 µM (inactive)
[10]
  AC50: 0.276 µM (active)
[6]
  IC50: 11.7 µM (active)
Vero
  CC50: 13.1 µM (active)

## O=NN1C(c2ccccc2)CNC(=O)CC1c1ccccc1 (stereo not given)
SN12K1
  GI50: 39.2 µM (inactive)
P388
  GI50: 21.8 µM (inactive)
P388/ADR
  GI50: 22.8 µM (inactive)

## O=C(CSc1nnc(SCc2ccccc2)s1)N/N=C/c1c[nH]c2ccccc12
[8]
  IC50: > 66.6 µM (inactive)
[9]
  IC50: 10.4 µM (active)

## CC(=O)O[C@H]1C(=O)O[C@@H]2C[C@H]3C(C)=CC(=O)[C@@H](O)[C@]3(C)[C@H]3[C@@]4(O)OC[C@]32[C@@H]1[C@@H](C)[C@H]4O
SN12K1
  GI50: 0.0223 µM (active)
P388
  GI50: 0.133 µM (active)
P388/ADR
  GI50: 1.66 µM (inactive)

## CS(=O)(=O)OCCCCOS(C)(=O)=O [BUSULFAN]
SN12K1
  GI50: 215 µM (inactive)
P388
  GI50: 117 µM (inactive)
P388/ADR
  GI50: 109 µM (inactive)
